The values that follow come from patent US20240308998A1, “PYRROLOPYRIDONE DERIVATIVES USEFUL IN THE TREATMENT OF CANCER” (Tay Therapeutics Limited, priority 2021, published 2024).

Structures are written as SMILES. Counter-ions that a name gives are not always drawn.

One series deals with T1, BRD4 BD1 (Homo sapiens, UniProt O60885).
T1 construct: HEK293 cells were transfected using NanoLuc-BRD4-BD1 or NanoLuc-BRD4-BD2 fusion vectors; host or cells: HEK293
The experiment in a line: NanoBRET bromodomain assay, BRD4 BD1. The format is cell-based. The following applies: HEK293 cells transfected with NanoLuc-BRD4-BD1. On the procedure: (§1) HEK293 cells were transfected using NanoLuc-BRD4-BD1 or NanoLuc-BRD4-BD2 fusion vectors and incubated at 37° C. in an atmosphere of 5% CO2 for 20-24 hours. The transfected cells were then dispensed into 96-well plates using 90 μl cell suspension per well containing 2×10^5 cells/ml in Opti-MEM and 1x final concentration of tracer. 90 μl per well of cell suspension without tracer was also dispensed into at least 3 wells as “No tracer control samples” for background correction. Serially diluted test compounds were prepared at 1000× concentration in DMSO and further diluted to 10× concentration in Opti-MEM. 10 μl per well of the serially diluted 10× test compound was added to the 96-well plates containing cells with 1x tracer. Plates were then incubated at 37° C.+5% C02 incubator for 2 hours. Immediately prior to BRET measurements, a 3x solution consisting of 1:166 dilution of Nano-Glo® Substrate plus a 1:500 dilution of Extracellular NanoLuc Inhibitor in Opti-MEM was prepared and 50 μl per well was added to the cells. Donor emission (450 nm) and acceptor emission (610 nm) were measured using PHERAstar (BMG LabTech). For data analysis, the raw BRET ratio was generated and converted to milliBRET units with background correction using the formula: [(Acceptorsample/Donorsample)−(Acceptorno tracer control/Donorno tracer control)]×1000. The mBU data was plotted as a function of compound concentration and IC50s for BRET assay were determined by nonlinear regression analysis of concentration response curves using the GraphPad Prism software.

The target in another series is T2, BRD4 BD2 (Homo sapiens, UniProt O60885).
T2 construct: HEK293 cells were transfected using NanoLuc-BRD4-BD1 or NanoLuc-BRD4-BD2 fusion vectors; host or cells: HEK293
Put plainly: NanoBRET bromodomain assay, BRD4 BD2. The format is cell-based. The following applies: for Fold selectivity BRD4 BD1/BD2: IC50 BD1/IC50 BD2; for IC50: NanoBRET, HEK293 cells transfected with NanoLuc-BRD4-BD2. The procedure: as §1
Fold Selectivity Calculated (IC50 BD1/IC50 BD2).

Series [1] can be described thus: Intrinsic clearance in rat liver microsomes. The following applies: pH 7.4, NADPH, read-out: Rat Microsomal Stability T½. The class given is in vitro ADME. On the procedure:
A 50 mM stock solution (in DMSO) was prepared for the compound. From the stock solution, a working solution of 0.5 mM was prepared by diluting the compound in DMSO. This concentration of working solution was prepared considering a final concentration of 1 uM with 0.1% DMSO. The compound (1 uL of working solution) was spiked in PBS with pH 7.4 (22 uL) at a concentration of 1 uM. Subsequently, 110 uL of 10 mM NADPH was added (as a co-factor). The sample was incubated at 37° C. for 15 min. Following this, pre-warmed rat liver microsomes (27.5 uL; final protein conc. 0.5 mg/mL) were added. The samples were then incubated at 37° C. Aliquots of samples were withdrawn at 0, 5, 15, 30, 45 and 60 min. The reaction was stopped by using chilled acetonitrile containing internal standard. The samples were centrifuged and the supernatants analysed by LC-MS/MS. The percent compound remaining at each time point was calculated with respect to that of the 0 min sample. The data were then analysed to calculate half-life. Note that control samples were run without NADPH and blank samples were prepared using DMSO without the test Compound.
For orientation: Liver microsomes are vesicles of endoplasmic reticulum, rich in cytochrome P450 enzymes.

For the molecule `Cc1cccc(C)c1Oc1cn(C)c(=O)cc1-c1cn(C)c(=O)c2[nH]c(-c3ccncc3)cc12` [Example 10, 4-(5-(2,6-dimethylphenoxy)-1-methyl-2-oxo-1,2-dihydropyridin-4-yl)-6-methyl-2-(pyridin-4-yl)-1,6-dihydro-7H-pyrrolo[2,3-c] pyridin-7-one], the IC50 against BRD4 BD1 was over 1000 nM; against BRD4 BD2, at most 50 nM. Further, at BRD4 BD2, the “Fold selectivity BRD4 BD1/BD2” value is “xxx (Fold >200)”. Further, in series [1], the half-life at 1 uM came out at 0.733 h.
With `Cc1cccc(C)c1Oc1cn(C)c(=O)cc1-c1cn(C)c(=O)c2[nH]c(-c3cccnc3)cc12` [Example 9, 4-(5-(2,6-dimethylphenoxy)-1-methyl-2-oxo-1,2-dihydropyridin-4-yl)-6-methyl-2-(pyridin-3-yi)-1,6-dihydro-7H-pyrrolo[2,3-c] pyridin-7-one.TFA], the half-inhibitory concentration (IC50) is over 1000 nM against BRD4 BD1 and 200 to 1000 nM on BRD4 BD2. In addition, the “Fold selectivity BRD4 BD1/BD2” value on BRD4 BD2 is “x (Fold >2 and ≤50)”. For the same molecule, the half-life at 1 uM in series [1] was over 1 h.
`Cc1ccc(Cl)cc1-c1cc2c(-c3cc(=O)n(C)cc3Oc3c(C)cccc3C)cn(C)c(=O)c2[nH]1` [Example 20, 2-(5-chloro-2-methylphenyl)-4-(5-(2,6-dimethylphenoxy)-1-methyl-2-oxo-1,2-dihydropyridin-4-yl)-6-methyl-1,6-dihydro-7H-pyrrolo[2,3-c] pyridin-7-one] showed an IC50 against BRD4 BD1 of over 1000 nM. In addition, on BRD4 BD2, the “Fold selectivity BRD4 BD1/BD2” value is “x (Fold >2 and ≤50)”; the IC50 lay within 200 to 1000 nM. Also, the half-life at 1 uM in series [1] is over 1 h.
On BRD4 BD1, `Cc1cccc(C)c1Oc1cn(C)c(=O)cc1-c1cn(C)c(=O)c2[nH]c(-c3cn(C)nc3C)cc12` [Example 12, 2-(1,3-dimethyl-1H-pyrazol-4-yl)-4-(5-(2,6-dimethylphenoxy)-1-methyl-2-oxo-1,2-dihydropyridin-4-yl)-6-methyl-1,6-dihydro-7H-pyrrolo[2,3-c] pyridin-7-one] returned an IC50 of 500 to 1000 nM. Besides, on BRD4 BD2, the “Fold selectivity BRD4 BD1/BD2” value is “xx (Fold >50 and ≤200)”; the IC50 is at most 50 nM. Besides, the half-life at 1 uM in series [1] is over 1 h.
For `Cc1cccc(C)c1Oc1cn(C)c(=O)cc1-c1cn(C)c(=O)c2[nH]c(-c3ccc(C#N)cc3)cc12` [Example 24, 4-(4-(5-(2,6-dimethylphenoxy)-1-methyl-2-oxo-1,2-dihydropyridin-4-yl)-6-methyl-7-oxo-6,7-dihydro-1H-pyrrolo[2,3-c]pyridin-2-yl) benzonitrile], the IC50 against BRD4 BD1 was over 1000 nM; at BRD4 BD2, 200 to 1000 nM. Besides, the “Fold selectivity BRD4 BD1/BD2” value on BRD4 BD2 was “x (Fold >2 and ≤50)”. In series [1], the half-life at 1 uM was over 1 h.
Consider `Cc1cccc(C)c1Oc1cn(C)c(=O)cc1-c1cn(C)c(=O)c2[nH]c(-c3ccc(F)cc3)cc12` [Example 25, 4-(5-(2,6-dimethylphenoxy)-1-methyl-2-oxo-1,2-dihydropyridin-4-yl)-2-(4-fluorophenyl)-6-methyl-1,6-dihydro-7H-pyrrolo[2,3-c] pyridin-7-one], for which the IC50 against BRD4 BD1 is over 1000 nM. Further, at BRD4 BD2, the “Fold selectivity BRD4 BD1/BD2” value is “xxx (Fold >200)” and the IC50 is at most 50 nM. Besides, the half-life at 1 uM in series [1] was over 1 h.
Regarding `Cc1cccc(C)c1Oc1cn(C2CNC2)c(=O)cc1-c1cn(C)c(=O)c2[nH]c(-c3cn(C(C)C)nc3C)cc12` [Example 42, 4-(1-(azetidin-3-yl)-5-(2,6-dimethylphenoxy)-2-oxo-1,2-dihydropyridin-4-yl)-2-(1-isopropyl-3-methyl-1H-pyrazol-4-yl)-6-methyl-1,6-dihydro-7H-pyrrolo[2,3-c]pyridin-7-one], the IC50 on BRD4 BD1 is over 1000 nM. For the same molecule, at BRD4 BD2, the “Fold selectivity BRD4 BD1/BD2” value is “xx (Fold >50 and ≤200)”; the IC50 was in the range of 50 to 200 nM.

In general, IC50 refers to the concentration at which inhibition is half-maximal.
